Key:
Type in all cases: functional
Conditions in all cases: route oral
Mus musculus [1] = assay: Inhibition of antigen-induced arthritis in mice following 10 mg/kg p.o. administration.
Mus musculus [2] = assay: Compound was tested for antiarthritic activity in murine model of antigen-induced arthritis. upon 10 mg/kg peroral administration
Mus musculus [3] = assay: Inhibition of delayed type hypersensitivity granuloma in mice following 10 mg/kg p.o. administration.
Mus musculus [4] = assay: Compound was tested for anti-inflammatory activity in delayed type hypersensitivity granuloma upon 100 mg/kg peroral administration
Mus musculus [5] = assay: Compound was tested for antiarthritic activity in murine model of antigen-induced arthritis upon 100 mg/kg peroral administration
Mus musculus [6] = assay: Compound was tested for antiarthritic activity in murine model of antigen-induced arthritis upon 10 mg/kg peroral administration

| Compound | inhibition in vivo at 10 mg/kg (Mus musculus [1]) [%] | inhibition in vivo at 10 mg/kg (Mus musculus [3]) [%] | other results |
| --- | --- | --- | --- |
| CC1(C)COP(=O)(C(CCC(=O)c2cccc(F)c2)P2(=O)OCC(C)(C)CO2)OC1 | 48 | < 57 | ED30 (Mus musculus [2]): 0.01 mg/kg |
| CC1(C)COP(=O)(C(CCC(=O)c2ccccc2)P2(=O)OCC(C)(C)CO2)OC1 | – | 36 | – |
| CCOP(=O)(OCC)C(CCC(=O)c1ccccc1)P(=O)(OCC)OCC | 10 | 51 | – |
| CCOC(=O)Nc1ccc(C(=O)CCC(P(=O)(OCC)OCC)P(=O)(OCC)OCC)cc1 | 18 | 43 | – |
| CCOP(=O)(OCC)C(CCC(=O)c1cccc(I)c1)P(=O)(OCC)OCC | – | 5 | – |
| CCOP(=O)(OCC)C(CCC(=O)c1cccc(Br)c1)P(=O)(OCC)OCC | 22 | 59 | – |
| CCOP(=O)(OCC)C(CCC(=O)c1ccc(NC(=O)c2ccccc2)cc1)P(=O)(OCC)OCC | 4 | 63 | – |
| CCOP(=O)(OCC)C(CCC(O)c1ccccc1)P(=O)(OCC)OCC (stereo not given) | – | 39 | – |
| CC1(C)COP(=O)(C(CCC(=O)c2ccoc2)P2(=O)OCC(C)(C)CO2)OC1 | 16 | 45 | – |
| CC1(C)COP(=O)(C(CCC(=O)c2cccnc2)P2(=O)OCC(C)(C)CO2)OC1 | 28 | 38 | ED30 (Mus musculus [2]): 0.4 mg/kg |
| CCOP(=O)(OCC)C(CCC(=O)c1ccc(NC(C)=O)cc1)P(=O)(OCC)OCC | 10 | 75 | – |
| CCOP(=O)(OCC)C(CCC(=O)c1cccc(Cl)c1)P(=O)(OCC)OCC | 26 | 10 | – |
| CCOP(=O)(OCC)C(CCC(=O)c1cccc(NS(C)(=O)=O)c1)P(=O)(OCC)OCC | 33 | 37 | – |
| CCOP(=O)(OCC)C(CCC(=O)c1cccnc1)P(=O)(OCC)OCC | 61 | 51 | – |
| CCOP(=O)(OCC)C(CCCc1ccccc1)P(=O)(OCC)OCC | 11 | 44 | – |
| CCOP(=O)(OCC)C(CCC(=O)c1ccco1)P(=O)(OCC)OCC | 11 | 23 | – |
| O=P(O)(O)C(Cl)(Cl)P(=O)(O)O [CLODRONIC ACID] | – | – | ED30 (Mus musculus [4]): 30 mg/kg; inhibition in vivo at 100 mg/kg (Mus musculus [4]): 48%; ED30 (Mus musculus [5]): 50 mg/kg; inhibition in vivo at 100 mg/kg (Mus musculus [5]): 42% |
| CCOP(=O)(OCC)C(CCC(=O)c1ccccn1)P(=O)(OCC)OCC | 47 | 43 | – |
| CCOP(=O)(OCC)C(CC(C(=O)c1ccccc1)c1ccccc1)P(=O)(OCC)OCC (stereo not given) | – | 65 | ED30 (Mus musculus [6]): 50 mg/kg; inhibition in vivo at 10 mg/kg (Mus musculus [6]): 54% |
| CCOP(=O)(OCC)C(CCC(=O)c1cccc(F)c1)P(=O)(OCC)OCC | 40 | 44 | ED30 (Mus musculus [2]): 0.1 mg/kg |
| CCOP(=O)(OCC)C(CC(=O)c1ccccc1)P(=O)(OCC)OCC | 11 | 7 | – |

— ChEMBL document CHEMBL1130809, “Anti-inflammatory/antiarthritic ketonic bisphosphonic acid esters” (1998)
